Patent US8084605B2, “Polymorphs of succinate salt of 2-[6-(3-amino-piperidin-1-yl)-3-methyl-2,4-dioxo-3,4-dihydro-2H-pyrimidin-1-ylmethy]-4-fluor-benzonitrile and methods of use therefor” (priority 2006, dated 2011)

Key:
Assay type in all cases: physicochemical
[1] = Moisture sorption/desorption analysis
Description: Moisture sorption/desorption data were collected on a VTI SGA-100 Vapor Sorption Analyzer. Sorption and desorption data were collected over a range of 5% to 95% relative humidity (RH) at 10% RH intervals under a nitrogen purge. Samples were not dried prior to analysis. Equilibrium criteria used for analysis were less than 0.0100% weight change in 5 minutes, with a maximum equilibration time of 3 hours if the weight criterion was not met. Data were not corrected for the initial moisture content of the samples. NaCl and PVP were used as calibration standards. Moisture sorption and desorption study was conducted on a sample of Form A+B. The sample was prepared by crashed cooling crystallization (Example 3, section A.6) of the polymorphic forms from a ethanol:water (95:5) solution of Compound I. The moisture sorption and desorption study was conducted according to the procedures outlined in Example 3, section B. 10. The data collected is plotted in FIG. 13 and summarized in Table L. Moisture sorption and desorption study was conducted on a sample of Form E. The sample was prepared by solvent/antisolvent crystallization (Example 3, section A.7) by the addition of acetonitrile to Compound I in water. The moisture sorption and desorption study was conducted according to the procedures outlined in Example 3, section B. 10. The data collected is plotted in FIG. 23 and summarized in Table M. Moisture sorption and desorption study was conducted on a sample of Amorphous Form. The sample was prepared by lyophilolization of a solution of Compound I in water (Example 3, section A.9). The moisture sorption and desorption study was conducted according to the procedures outlined in Example 3, section B. 10.

[2] = Approximate solubility of Compound I in different solvents; conditions: most solvents, with the exceptions of DMF, methanol, TFE, water and water:solvent mixtures
Description: Compound I prepared by the method described in Example 1 was used for the solubility study. Solvents and other reagents were of ACS or HPLC grade and were used as received.
A weighed sample (typically about 20-25 mg) of Compound I was treated at ambient temperature with aliquots (typically ≧50 μL) of the test solvent with sonication between additions. Solvents were either reagent or HPLC grade. Solubility was estimated from the total volume of solvent used to obtain a clear solution, as determined by visual inspection. Solubility is expressed as “less than” when dissolution was not observed. If dissolution occurred after the last aliquot was added then solubility is expressed as “greater than or equal to” (≧). The actual solubilities may be greater than determined, due to over addition of solvent (large aliquots) or slow dissolution rates. Approximate solubilities of Compound I are summarized in Table A. The solubility values have been rounded to the nearest whole number and are reported to the nearest mg/mL.

[3] = Relative humidity stressing experiments (form by XRPD); conditions: for Form by XRPD after relative humidity stressing: 29 days
From the text: Samples of Compound I were placed uncovered in approximately 58%, 88%, and 97% relative humidity jars. The samples were stored in the jars for approximately 8 days. The solids were collected and analyzed by XRPD for form identification. Aliquots of Form A of Compound I were stored under approximately 50% and 97% relative humidity for 29 days. An aliquot of a mixture of Form A+B was stressed at 88% relative humidity for 23 days. Amorphous Form was stressed at 58% and 88% relative humidity for 23 days.

Cn1c(=O)cc(N2CCC[C@@H](N)C2)n(Cc2ccccc2C#N)c1=O.O=C(O)CCC(=O)O [Amorphous Form]
Weight lost during sorption ([1]; at 75% relative humidity): Approximately 7%

Cn1c(=O)cc(N2CCC[C@@H](N)C2)n(Cc2cc(F)ccc2C#N)c1=O [Compound I, 2-[6-(3-amino-piperidin-1-yl)-3-methyl-2,4-dioxo-3,4-dihydro-2H-pyrimidin-1-ylmethyl]-4-fluoro-benzonitrile succinate]
Solubility (in words) [2]: Poor solubility
XRPD Form post MB ([1]; lyophilized sample from H2O solution): low crystallinity A
XRPD Form post MB ([1]; sample crystallized from H2O/ACN): A + small quantity of E
XRPD Form post MB ([1]; sample prepared by CC from EtOH:H2O (95:5)): A + B

Cn1c(=O)cc(N2CCC[C@@H](N)C2)n(Cc2cc(F)ccc2C#N)c1=O.O=C(O)CCC(=O)O [Form A]
Stability (conclusion from characterization data) ([3]; ambient conditions): stable at ambient conditions
Form by XRPD after relative humidity stressing ([3]; approximately 50% and 97% relative humidity): Form A
Form by XRPD after relative humidity stressing ([3]; approximately 58% and 97% relative humidity): did not exhibit form changes
